Columns and labels:
K562 cells = assay: Anti-proliferative assay (MTT), K562; format: cell-based; settings: Homo sapiens, 48 h, triplicate, mean ± SD
Method: (§1) The MTT method was used for the determination of anti-proliferative activities of selected compounds against tumor cells. Human histiocytic lymphoma cells U937, human chronic myeloid leukemia cells K562, liver carcinoma alexander cells PLC/PRF/5, human prostate cancer cells PC-3, human ovarian clear cell carcinoma cells ES-2, human hepatocellular carcinoma cells HepG2 were selected as tested tumor cell lines. Firstly, the cells were cultured in RPMI 1640 medium with 10% FBS at 37 °C in 5% CO2 humidified incubator. Cells (100 μL) in logarithmic phase were inoculated in 96-well plates and allowed to grow for 4 h. Subsequently, inhibitors (100 μL) at the tested concentration were added, followed by incubation for 48 h. Then, to the mixture was added MTT solution (20 μL, 5 mg/mL) and further incubated for 4 h. The plates were centrifuged at 800 rpm for 3 min. The supernatant was poured off and the formed formazan was dissolved in DMSO (200 μL). Finally, the mixture was shaken for 15 min and the absorbance values of the formazan solution were measured at 570 nm with a plate reader (Varioskan, Thermo, Waltham, MA, USA). All the tumor cells were owned by our laboratory.

HepG2 cells = assay: Anti-proliferative assay (MTT), HepG2; format: cell-based; settings: Homo sapiens, 48 h, triplicate, mean ± SD
Method: as §1

PLC/PRF/5 cells = assay: Anti-proliferative assay (MTT), PLC/PRF/5; format: cell-based; settings: Homo sapiens, 48 h, triplicate, mean ± SD
Method: as §1

ES-2 cells = assay: Anti-proliferative assay (MTT), ES-2; format: cell-based; settings: Homo sapiens, 48 h, triplicate, mean ± SD
Method: as §1

PC-3 cells = assay: Anti-proliferative assay (MTT), PC-3; format: cell-based; settings: Homo sapiens, 48 h, triplicate, mean ± SD
Method: as §1

U937 cells = assay: Anti-proliferative assay (MTT), U937; format: cell-based; settings: Homo sapiens, U-937, 48 h, triplicate, mean ± SD
Method: as §1

rat thoracic aorta rings = assay: Rat aortic ring assay (ex vivo anti-angiogenesis); format: cell-based, Sprague Dawley rats
Method: The thoracic aortas were separated from 8- to 10-week-old male Sprague Dawley rats and cut into rings with a 1-mm-long cross-section after removal of the connective tissues around the aortas. The fresh aortic ring was added into the 96-well plates pre-coated with matrigel (50 μL, BD bioscience), and covered with another 50 μL of matrigel. After incubation at 37 °C in 5% CO2 for 0.5 h, the tested compounds (100 μL) in M199 culture medium with 10% FBS was added to the mixture and incubated at 37 °C in 5% CO2 for 9 d. For the treatment group, the M199 culture medium with 10% FBS and inhibitors was changed every three days. For the control group, the M199 culture medium with 10% FBS and 0.5% DMSO was changed every three days. The formed micro-vessels were photographed by inverted microscope at 100× magnification. Experiments were repeated three times. All experiments involving laboratory animals were performed with the approval of the Laboratory Animal Welfare Review Committee of Shandong University of Traditional Chinese Medicine.

[1] = target: T1, porcine kidney aminopeptidase N (APN) (Sus scrofa, UniProt P15145); assay: Enzymatic inhibition assay against APN in vitro (L-Leu-p-nitroanilide substrate); format: biochemical; settings: for IC50: soluble APN from porcine kidney microsomal, 37 °C, 30 min, triplicate, mean ± SD
T1 construct: purchased Enzo Life Sciences; host or cells: porcine kidney microsomes (tissue-derived)
T1 sequence (P15145 1-963): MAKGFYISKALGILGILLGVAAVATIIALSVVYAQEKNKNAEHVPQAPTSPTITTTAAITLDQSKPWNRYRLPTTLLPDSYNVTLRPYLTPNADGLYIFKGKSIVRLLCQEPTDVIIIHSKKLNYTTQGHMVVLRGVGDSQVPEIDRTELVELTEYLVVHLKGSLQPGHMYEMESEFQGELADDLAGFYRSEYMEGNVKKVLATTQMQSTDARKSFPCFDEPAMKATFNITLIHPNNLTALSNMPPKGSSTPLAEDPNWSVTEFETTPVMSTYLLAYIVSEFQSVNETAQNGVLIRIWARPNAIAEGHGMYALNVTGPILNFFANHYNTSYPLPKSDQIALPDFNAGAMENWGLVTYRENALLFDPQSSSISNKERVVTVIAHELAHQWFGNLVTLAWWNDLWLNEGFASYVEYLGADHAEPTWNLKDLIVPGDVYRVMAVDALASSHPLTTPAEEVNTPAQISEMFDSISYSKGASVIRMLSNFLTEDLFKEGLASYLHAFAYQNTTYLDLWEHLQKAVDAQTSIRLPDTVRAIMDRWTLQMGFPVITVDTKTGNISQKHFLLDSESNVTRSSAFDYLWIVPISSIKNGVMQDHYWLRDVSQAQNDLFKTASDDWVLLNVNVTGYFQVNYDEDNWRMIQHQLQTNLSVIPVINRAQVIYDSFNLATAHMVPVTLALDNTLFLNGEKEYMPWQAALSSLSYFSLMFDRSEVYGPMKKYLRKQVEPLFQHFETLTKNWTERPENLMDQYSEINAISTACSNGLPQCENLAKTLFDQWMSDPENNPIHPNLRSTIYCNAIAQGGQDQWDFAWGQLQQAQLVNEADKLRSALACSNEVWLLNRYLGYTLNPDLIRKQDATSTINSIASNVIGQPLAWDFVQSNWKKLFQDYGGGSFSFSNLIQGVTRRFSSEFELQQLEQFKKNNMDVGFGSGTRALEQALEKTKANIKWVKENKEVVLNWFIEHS
Method: The enzymatic inhibitory activities of target compounds were evaluated using L-Leu-p-nitroanilide (Sigma-Aldrich, St. Louis, MO, USA) as substrate and soluble APN from porcine kidney microsomal (Enzo Life Sciences, Farmingdale, NY, USA) as enzyme. Firstly, the substrate was dissolved in DMSO to a concentration of 16 mmol/L and the enzyme was dissolved in buffer solution of 50 mM PBS (pH = 7.2) for a concentration of 0.15 IU/L. Subsequently, inhibitors (40 μL) and PBS (145 μL) were added into the 96-well plates, followed by the addition of substrate (5 μL) and enzyme (10 μL). After incubation at 37 °C for 30 min, the absorbance values were measured at 405 nm with a plate reader (Varioskan, Thermo Fisher Scientific, Waltham, MA, USA).

| melting point [°C] | IC50 [1] [µM] | SMILES | further results |
| --- | --- | --- | --- |
| – | – | CC(C)C[C@H](NC(=O)[C@@H](O)[C@H](N)Cc1ccccc1)C(=O)O [Bestatin, bestatin, reference compound] | IC50 (K562 cells): > 500 µM; IC50 (HepG2 cells): > 500 µM; IC50 (PLC/PRF/5 cells): > 500 µM; IC50 (ES-2 cells): > 500 µM; IC50 (PC-3 cells): > 500 µM; IC50 (U937 cells): > 500 µM |
| 174 to 176 | 0.0062 ± 0.0004 | CC(=O)N1N=C(c2c(Cl)cccc2Cl)CC1c1ccccc1OCC(=O)NO (centres unmarked) [Compound 14o, 2-(2-(1-Acetyl-3-(2,6-dichlorophenyl)-4,5-dihydro-1H-pyrazol-5-yl)phenoxy)-N-hydroxyacetamide] | IC50 (K562 cells): 10.4 ± 1.2 µM; IC50 (HepG2 cells): 84.2 ± 7.6 µM; IC50 (PLC/PRF/5 cells): 88.5 ± 7.4 µM; IC50 (ES-2 cells): 115 ± 9.7 µM; IC50 (PC-3 cells): 45.8 ± 4.1 µM; growth of micro-vessels derived from the thoracic aorta rings (rat thoracic aorta rings; 1 μM and 50 μM, 9 d incubation): could prevent the growth of micro-vessels derived from the thoracic aorta rings in a dose–dependent manner; micro-vessels at 50 μM compared with the group treated with 1 μM (rat thoracic aorta rings; 50 μM, 9 d incubation): obviously reduced micro-vessels; anti-angiogenic activity compared with bestatin (rat thoracic aorta rings; same concentration of 50 μM): much better than that of bestatin; fold more potent against APN than lead compound 13c ([1]; ratio of APN IC50 values): over 9 fold; fold more potent against APN than positive control bestatin ([1]; ratio of APN IC50 values): over 1419 fold; IC50 (U937 cells): 38.3 ± 3.6 µM |
| 170 to 172 | 0.21 ± 0.01 | CC(=O)N1N=C(c2ccccc2C)CC1c1ccccc1OCC(=O)NO (centres unmarked) [Compound 14k, 2-(2-(1-Acetyl-3-(o-tolyl)-4,5-dihydro-1H-pyrazol-5-yl)phenoxy)-N-hydroxyacetamide] | – |
| 152 to 154 | 0.32 ± 0.03 | CC(=O)N1N=C(c2cccc(Br)c2)CC1c1ccccc1OCC(=O)NO (centres unmarked) [Compound 14b, 2-(2-(1-Acetyl-3-(3-bromophenyl)-4,5-dihydro-1H-pyrazol-5-yl)phenoxy)-N-hydroxy acetamide] | – |
| 176 to 178 | 0.25 ± 0.01 | CC(=O)N1N=C(c2ccccc2F)CC1c1ccccc1OCC(=O)NO (centres unmarked) [Compound 14g, 2-(2-(1-Acetyl-3-(2-fluorophenyl)-4,5-dihydro-1H-pyrazol-5-yl)phenoxy)-N-hydroxy acetamide] | – |
| 170 to 172 | 0.37 | COc1cccc(C2=NN(C(C)=O)C(c3ccccc3OCC(=O)NO)C2)c1 (centres unmarked) [Compound 14e, 2-(2-(1-Acetyl-3-(3-methoxyphenyl)-4,5-dihydro-1H-pyrazol-5-yl)phenoxy)-N-hydroxy acetamide] | – |
| 178 to 180 | 0.2 ± 0.01 | COc1cccc(OC)c1C1=NN(C(C)=O)C(c2ccccc2OCC(=O)NO)C1 (centres unmarked) [Compound 14m, 2-(2-(1-Acetyl-3-(2,6-dimethoxyphenyl)-4,5-dihydro-1H-pyrazol-5-yl)phenoxy)-N-hydroxyacetamide] | – |
| 120 to 122 | 3.8 ± 0.2 | COc1ccc(C2=NN(C(C)=O)C(c3ccccc3OCC(=O)NO)C2)cc1 (centres unmarked) [Compound 14f, 2-(2-(1-Acetyl-3-(4-methoxyphenyl)-4,5-dihydro-1H-pyrazol-5-yl)phenoxy)-N-hydroxy acetamide] | – |
| 176 to 178 | 0.015 ± 0.001 | NC(=O)N1N=C(c2ccccc2OCc2ccccc2)CC1c1ccccc1OCC(=O)NO (centres unmarked) [Compound 14bb, 3-(2-(Benzyloxy)phenyl)-5-(2-(2-(hydroxyamino)-2-oxoethoxy)phenyl)-4,5-dihydro-1H-pyrazole-1-carboxamide] | – |
| 212 to 214 | 0.44 ± 0.03 | COc1cccc(OC)c1C1=NN(C(N)=O)C(c2ccccc2OCC(=O)NO)C1 (centres unmarked) [Compound 14n, 3-(2,6-Dimethoxyphenyl)-5-(2-(2-(hydroxyamino)-2-oxoethoxy)phenyl)-4,5-dihydro-1H-pyrazole-1-carboxamide] | – |
| 96 to 98 | 0.56 ± 0.04 | CC(=O)N1N=C(c2ccccc2OCc2ccc(Br)cc2)CC1c1ccccc1OCC(=O)NO (centres unmarked) [Compound 14gg, 2-(2-(1-Acetyl-3-(2-((4-bromobenzyl)oxy)phenyl)-4,5-dihydro-1H-pyrazol-5-yl)phenoxy)-N-hydroxyacetamide] | – |
| 96 to 98 | 3.5 ± 0.2 | CC(=O)N1N=C(c2ccccc2I)CC1c1cccc(Br)c1OCC(=O)NO (centres unmarked) [Compound 14q, 2-(2-(1-Acetyl-3-(2-iodophenyl)-4,5-dihydro-1H-pyrazol-5-yl)-6-bromophenoxy)-N-hydroxyacetamide] | – |
| 166 to 168 | 0.029 ± 0.002 | CC(=O)N1N=C(c2ccccc2Cl)CC1c1ccccc1OCC(=O)NO (centres unmarked) [Compound 14h, 2-(2-(1-Acetyl-3-(2-chlorophenyl)-4,5-dihydro-1H-pyrazol-5-yl)phenoxy)-N-hydroxy acetamide] | – |
